The results in this text go back to patent US6716987B1, “Derivatives of benzofuran or benzodioxazole compounds” (Kyowa Hakko Kogyo Co., Ltd., priority 1995, dated 2004).

By melting point is commonly meant the temperature, or range, at which the solid turns liquid.

Molecules are shown by their SMILES. Counter-ions that a name gives are not always drawn.

The subject of the first series is cAMP-specific phosphodiesterase (PDE IV). Briefly: Inhibition of the PDE IV enzyme derived from a dog trachea. The series is classed as biochemical. To be noted: test compound 10^−6 M; PDE IV from dog tracheal smooth muscle; substrate cAMP 1 μM. The protocol: cAMP-specific phosphodiesterase (PDE IV) was purified from a dog tracheal smooth muscle according to the method of Torphy et al. [Molecular Pharmacol., 37, 206-214 (1990)]. The PDE activity was measured by the following two steps according to the method of Kincaid and Manganiello et al. [Method in Enzymology (J. D. Corbin and R. A. Jonson, Eds.), 199, 457-470 (1988)]. Using [^3]cAMP (at a final concentration of 1 μM) as a substrate, the reaction was carried out in a standard mixture containing N,N-bis(2-hydroxyethyl)-2-aminoethanesulfonic acid (50 mM, pH=7.2), MgCl2 (1 mM), and soybean trypsin inhibitor (0.1 mg/ml). The reaction was initiated by adding the enzyme, followed by incubation at 30° C. for 10 to 30 minutes. After stopping the reaction with hydrochloric acid, the generated […] was completely converted to adenosine by 5′-nucleotidase.
The resultant was subjected to chromatography on DEAE-Sephadex A-25, and radio activity of the eluted [^3H] adenosine was counted using a scintillation counter. Each of the test drugs was dissolved in DMSO (final concentration 1.7%) and then added to the mixture.
Turning to `CCOC(=O)CC1COc2c(OC)ccc(C(=O)Nc3ccncc3)c21` (racemic) [Compound 6, (±)-3-Ethoxycarbonylmethyl-7-methoxy-4-pyridylaminocarbonyl-2,3-dihydrobenzofuran], the “Enzyme Inhibitory Activity (%, 10^−6 M)” value stood at 66%. `COc1ccc(C(=O)Nc2c(Cl)cncc2Cl)c2c1OCC2CC(=O)N1CCN(C)CC1.Cl` (racemic) [Compound 17, (±)-4-[(3,5-Dichloro-4-pyridyl)aminocarbonyl]-7-methoxy-3-[(4-methylpiperazin-1-yl)carbonylmethyl]-2,3-dihydro-benzofuran.hydrochloride]: the “Enzyme Inhibitory Activity (%, 10^−6 M)” value stood at 63%.

Take `COc1ccc(C(=O)Nc2c(Cl)cncc2Cl)c2c1OCC2CC(=O)Nc1cccnc1` (racemic) [Compound 19, (±)-4-[(3,5-Dichloro-4-pyridyl)aminocarbonyl]-7-methoxy-3-[(3-pyridyl)aminocarbonyl]methyl-2,3-dihydro-benzofuran]: the “Enzyme Inhibitory Activity (%, 10^−6 M)” value was 87%. Regarding `COc1ccc(C(=O)Nc2c(Cl)cncc2Cl)c2c1OCC2CC(=O)Nc1ncccn1` (racemic) [Compound 20, (±)-4-[(3,5-Dichloro-4-pyridyl)aminocarbonyl]-7-methoxy-3-[(2-pyrimidyl)aminocarbonyl]methyl-2,3-dihydro-benzofuran], the “Enzyme Inhibitory Activity (%, 10^−6 M)” value amounted to 80%. As for `COc1ccc(C(=O)Nc2c(Cl)cncc2Cl)c2c1OCC2CC(=O)N1CCc2ccccc2C1` (racemic) [Compound 22, (±)-4-[(3,5-Dichloro-4-pyridyl)aminocarbonyl]-7-methoxy-3-[(1,2,3,4-tetrahydroisoquinolinyl)carbonyl]-methyl-2,3-dihydrobenzofuran], the “Enzyme Inhibitory Activity (%, 10^−6 M)” value was found to be 85%. Regarding `COc1ccc(C(=O)Nc2c(Cl)cncc2Cl)c2c1OCC2CC(=O)NCc1ccccn1` (racemic) [Compound 24, (±)-4-[(3,5-Dichloro-4-pyridyl)aminocarbonyl]-7-methoxy-3-[(2-pyridylmethyl)aminocarbonyl]methyl-2,3-dihydrobenzofuran], the “Enzyme Inhibitory Activity (%, 10^−6 M)” value came out at 80%. With `COc1ccc(C(=O)Nc2c(Cl)cncc2Cl)c2c1OCC2CC(=O)NCc1ccncc1` (racemic) [Compound 26, (±)-4-[(3,5-Dichloro-4-pyridyl)aminocarbonyl]-7-methoxy-3-[(4-pyridylmethyl)aminocarbonyl]methyl-2,3-dihydrobenzofuran], the “Enzyme Inhibitory Activity (%, 10^−6 M)” value was 79%.

For the compound `COc1ccc(C(Sc2ccncc2)c2ccccc2)c2c1OC(C)(C)C2` (racemic) [Compound 49, (±)-7-Methoxy-2,2-dimethyl-4-[1-phenyl-1-(4-pyridylthio)methyl]-2,3-dihydrobenzofuran], the “Enzyme Inhibitory Activity (%, 10^−6 M)” value turned out to be 40%. Consider `COc1ccc(C(Cc2c(Cl)cncc2Cl)OC)c2c1OC(C)(C)C2` (racemic) [Compound 62, (±)-4-[2-(3,5-Dichloro-4-pyridyl)-1-methoxyethyl]-7-methoxy-2,2-dimethyl-2,3-dihydrobenzofuran], for which the “Enzyme Inhibitory Activity (%, 10^−6 M)” value was determined as 63%.

Test system in the next series: not given
Assay: not given
Conditions: not given
Take `COc1ccc(C(=O)Nc2c(Cl)cncc2Cl)c2c1OCC2`: the melting point is 196 to 197 °C.

Take `COc1ccc(C(=O)Cc2c(Cl)cncc2Cl)c2cc(C#N)oc12`: the melting point lay in the range of 197 to 199 °C. On to `CCOC(=O)Cc1coc2c(OC)ccc(C(=O)Cc3c(Cl)cncc3Cl)c12`, for which the melting point lay in the range of 105 to 115 °C. `CCOC(=O)Cc1coc2c(OC)ccc(C(=O)Cc3ccncc3)c12` displayed a melting point of 111 to 117 °C. `COc1ccc(C(=O)Nc2c(Cl)cncc2Cl)c2c1CC1(CCCC1)O2`: the melting point fell in the range of 156 to 158 °C. Take `COc1ccc(C(=O)Nc2ccncc2)c2c1CC1(CCCC1)O2.CS(=O)(=O)O`: the melting point is 164 °C (dec.). Turning to `COc1ccc(C(=O)Cc2ccncc2)c2c1CC1(CCCC1)O2`, the melting point was in the range of 101 to 103 °C. For the compound `COC(=O)c1ccc(-c2ccc(OC)c3c2CC(C)(C)O3)cc1`, the melting point was in the range of 116 to 122 °C. Regarding `COc1ccc(-c2ccc(C(=O)O)cc2)c2c1OC(C)(C)C2`, the melting point was 249 to 252 °C. `COC(=O)c1cccc(-c2ccc(OC)c3c2CC(C)(C)O3)c1` displayed a melting point of 89 to 91 °C. On to `COc1ccc(-c2cccc(C(=O)O)c2)c2c1OC(C)(C)C2`, for which the melting point was 220 to 225 °C.

For `COc1ccc(C(=O)Nc2c(F)cccc2F)c2c(CC(=O)OCc3ccccc3)coc12`, the melting point fell in the range of 223 to 224 °C. In the case of `COc1ccc(C(=O)Nc2c(C)cccc2C)c2c(CC(=O)OCc3ccccc3)coc12`, the melting point lay in the range of 202 to 204 °C. `COc1ccc(C(=O)Cc2c(Cl)cncc2Cl)c2c(CC(=O)O)coc12`: the melting point was 192 to 194 °C. On to `COc1ccc(C(=O)Cc2c(Cl)cncc2Cl)c2c(CC(=O)OCc3ccccc3)coc12`, for which the melting point is 132 to 133 °C. Same read-out and setting: in the case of `CCOC(=O)Cc1coc2c(OC)ccc(C(=O)Cc3c(Cl)cccc3Cl)c12` it was 153 to 154 °C. The compound `COc1ccc(C(=O)Cc2c(Cl)cccc2Cl)c2cc(C(=O)N(C)c3cccc(F)c3)oc12` displayed a melting point of 198 to 199 °C.

On to `COc1ccc(C(=O)Cc2c(Cl)cncc2Cl)c2cc(C(=O)c3ccccc3)oc12`, for which the melting point fell in the range of 213 to 215 °C.

With `COc1ccc(C(=O)Nc2cccc(C(=O)O)c2)c2cc(C(=O)c3ccccc3)oc12`, the melting point was in the range of 262 to 263 °C.

As for `COc1ccc(C(=O)Cc2c(Cl)cncc2Cl)c2c1OCC2CC(=O)OCc1ccccc1` (centres unmarked), the melting point fell in the range of 120 to 122 °C. In the case of `COc1ccc(C(=O)Cc2c(Cl)cncc2Cl)c2c1OCO2`, the melting point lay in the range of 170 to 171 °C. Compound `COc1ccc(C(=O)Cc2c(Cl)cncc2Cl)c2c1OC(C)(C)O2` returned a melting point of 133 to 134 °C.

The compound `COc1ccc(C(=O)Cc2c(Cl)cncc2Cl)c2c1OC(c1ccccc1)(c1ccccc1)O2` showed a melting point of 156 to 157 °C.

Take `COc1ccc(C(=O)Cc2c(Cl)cncc2Cl)c2c1OCCO2`: the melting point lay in the range of 158 to 160 °C. On to `COc1ccc(C(=O)Cc2ccncc2)c2c1OCCO2.Cl`, for which the melting point is 226 to 228 °C. `COc1ccc(C(=O)Cc2c(Cl)cccc2Cl)c2c1OCCO2` had a melting point of 154 to 155 °C.

With `COc1ccc(C(=O)Nc2c(Cl)cncc2Cl)c2c1OCCO2`, the melting point is 143 to 145 °C.

As for `COc1ccc(C(=O)Nc2c(Cl)cccc2Cl)c2c1OCCO2`, the melting point is 176 to 177 °C.

Consider `CCOC(=O)c1cccc(NC(=O)c2ccc(OC)c3c2OCCO3)c1`, for which the melting point fell in the range of 174 to 175 °C.

`COc1ccc(C(=O)Nc2cccc(C(=O)O)c2)c2c1OCCO2` came in with a melting point of 283 to 284 °C.

`CCOC(=O)c1ccc(-c2ccc(OC)c3c2OCCO3)cc1` came in with a melting point of 141 to 141.5 °C. Same read-out and setting: in the case of `COc1ccc(-c2ccc(C(=O)O)cc2)c2c1OCCO2` it was 281 to 284 °C.

In turn, `COc1ccc(C(=O)Cc2ccncc2)c2c1OCCCO2.Cl` gave a melting point of 205 to 208 °C. Compound `COc1ccc(CCc2ccncc2)c2c1OCCCO2.Cl` gave a melting point of 185 to 187 °C. `COc1ccc(C(=O)Nc2c(Cl)cncc2Cl)c2c1OCCCO2` had a melting point of 149 to 150 °C.

With `COc1ccc(C(=O)Nc2c(Cl)cncc2Cl)c2c1OCCCCO2`, the melting point fell in the range of 115 to 117 °C. As for `COc1ccc(C(=O)Nc2ccncc2)c2c1OC(C)(C)O2`, the melting point fell in the range of 180 to 181 °C. The same measure, in the same setting: the figure for `CCN1CCN(C(=O)c2cc3c(C(=O)Cc4c(Cl)cncc4Cl)ccc(OC)c3o2)CC1.O=C(O)/C=C/C(=O)O` is 196 to 197 °C; for `COc1ccc(C(=O)Nc2c(Cl)cncc2Cl)c2cc(Cc3ccccc3)oc12` it is 141 to 142 °C. The same measure, in the same setting: the figure for `COc1ccc(/C=C/c2c(Cl)cncc2Cl)c2c1OC(C)(C)C2` is 114 to 118 °C; for `COc1ccc(C(C)=Cc2ccncc2)c2c1OC(C)(C)C2` it is 85 to 87 °C. For the compound `COc1ccc(/C=C/c2c(Cl)cncc2Cl)c2cc(-c3ccncc3)oc12`, the melting point is 204 to 206 °C.

Consider `COc1ccc(C=C(C#N)C#N)c2c1OC(C)(C)C2`, for which the melting point lay within 198 to 200 °C. In turn, `COc1ccc(/C=C/C(=O)Nc2ccncc2)c2c1OC1(CCCC1)C2` gave a melting point of 124 to 128 °C. The compound `COc1ccc(C(=O)Cc2c(Cl)cncc2Cl)c2c1OC(C)(C)C2` gave a melting point of 127 to 131 °C.

Consider `COc1ccc(C(=O)Cc2ccncc2)c2c1OC(C)(C)C2`, for which the melting point lay within 107 to 111 °C. For the compound `COc1ccc(C(C)=Cc2ccncc2)c2c1OC1(CCCC1)C2` (as salt: salt) [Compound 75, 7-Methoxy-4-[1-methyl-2-(4-pyridyl)ethenyl]-spiro[2,3-dihydrobenzofuran-2,1′-cyclopentane]], the melting point fell in the range of 85 to 87 °C. With `COc1ccc(CNc2ccncc2)c2c1OCC2C` (racemic), the melting point was in the range of 138 to 145 °C. Regarding `COc1ccc(/C=C/c2c(Cl)cncc2Cl)c2c1OCC2C` (racemic), the melting point fell in the range of 117 to 118 °C. Same read-out and setting: in the case of `COC1(OC)CC=C(C(Cc2ccncc2)c2ccccc2)C2=C1OC(C)(C)C2` (racemic) [Compound 47, (±) 7-Methoxy-2,2-dimethyl-7-methoxy-4-[1-phenyl-2-(4-pyridyl)ethyl]-2,3-dihydrobenzofuran] it was 78 to 81 °C.
